Active and inactive are the calls of the source. The calls are words filed in the database; no cut-off is given here.
Key:
[1] = Metabolic stability in monkey liver microsomes assessed as half-life at 1 uM incubated upto 60 mins in presence of NADPH by LC-MS/MS analysis; format: ADME, Macaca mulatta, Microsome; settings: rhesus monkey
[2] = tested on: von Hippel-Lindau disease tumor suppressor/Epidermal growth factor receptor (Homo sapiens), P00533+P40337 [UNDEFINED MUTATION]; assay: PROTAC activity at VHL/EGFR Del19 mutant in human HCC827 cells assessed as downregulation of AKT phosphorylation incubated for 72 hrs by Western blot analysis; format: cell-based
HCC827 = assay: Antitumor activity against human HCC827 cells xenografted in BALB/c mouse assessed as tumor growth inhibition at 5 mg/kg,ip once daily for 28 days relative to control; format: functional; settings: HCC827, 672 h, time 28 day, read-out: TGI
[3] = Metabolic stability in dog liver microsomes assessed as half-life at 1 uM incubated upto 60 mins in presence of NADPH by LC-MS/MS analysis; format: ADME, Canis lupus familiaris, Microsome
NCI-H1975 = assay: Antitumor activity against human NCI-H1975 cells xenografted in BALB/c mouse assessed as tumor growth inhibition at 20 mg/kg,ip once daily for 22 days relative to control; format: functional; settings: NCI-H1975, 528 h, time 22 day, read-out: TGI
[4] = tested on: von Hippel-Lindau disease tumor suppressor/Epidermal growth factor receptor (Homo sapiens), P00533+P40337 [L858R,T790M]; assay: PROTAC activity at VHL/EGFR L858R/T790M mutant in human NCI-H1975 cells assessed as downregulation of ERK phosphorylation incubated for 72 hrs by Western blot analysis; format: cell-based
[5] = Metabolic stability in monkey liver microsomes assessed as intrinsic clearance at 1 uM incubated upto 60 mins in presence of NADPH by LC-MS/MS analysis; format: ADME, Macaca mulatta, Microsome; settings: rhesus monkey, read-out: CLH
[6] = AUC (0 to infinity) in SPF ICR mouse at 2 mg/kg,iv measured upto 24 hrs by LC-MS/MS analysis; format: ADME, organism-based; settings: in vivo
[7] = MRT (0 to infinity) in SPF ICR mouse at 2 mg/kg,iv measured upto 24 hrs by LC-MS/MS analysis; format: ADME, organism-based; settings: in vivo
[8] = target: Voltage-gated inwardly rectifying potassium channel KCNH2 (Homo sapiens, UniProt Q12809); assay: Inhibition of hERG expressed in CHO cells at 0.3 to 30 uM incubated for 24 to 48 hrs by voltage clamp electrophysiology; format: toxicity, cell-based; settings: dose lower 0.3 µM, time lower 24 hrs, dose upper 30 µM, time upper 48 hrs
H1975-TM = assay: Antitumor activity against human H1975-TM cells xenografted in BALB/c mouse assessed as increase in EGFR degradation in tumor at 5 to 20 mg/kg,ip once daily for 14 days by Western blot analysis; format: functional, organism-based; settings: dose 5-20 mg/kg, time 14.0 day
[9] = tested on: von Hippel-Lindau disease tumor suppressor/Epidermal growth factor receptor (Homo sapiens), P00533+P40337 [L858R,T790M,C797S]; assay: PROTAC activity at VHL/EGFR L858R/T790M/C797S mutant in human H1975-TM cells assessed as downregulation of EGFR phosphorylation incubated for 48 hrs by Western blot analysis; format: cell-based
[10] = Metabolic stability in human liver microsomes assessed as elimination rate constant at 1 uM incubated upto 60 mins in presence of NADPH by LC-MS/MS analysis; format: ADME, Microsome
[11] = Tmax in SPF ICR mouse at 2 mg/kg,iv measured upto 24 hrs by LC-MS/MS analysis; format: ADME, organism-based; settings: in vivo
[12] = tested on: von Hippel-Lindau disease tumor suppressor/Epidermal growth factor receptor (Homo sapiens), P00533+P40337 [UNDEFINED MUTATION]; assay: PROTAC activity at VHL/EGFR Del19 mutant in human HCC827 cells assessed as induction of EGFR degradation at 100 nM preincubated with MG-132 for 6 hrs followed by compound treatment for 48 hrs by Western blot analysis; format: cell-based
[13] = tested on: von Hippel-Lindau disease tumor suppressor/Epidermal growth factor receptor (Homo sapiens), P00533+P40337 [UNDEFINED MUTATION]; assay: PROTAC activity at VHL/EGFR Del19 mutant in human HCC827 cells assessed as downregulation of EGFR phosphorylation incubated for 72 hrs by Western blot analysis; format: cell-based
[14] = Half life in SPF ICR mouse at 5 mg/kg,ip measured upto 24 hrs by LC-MS/MS analysis; format: ADME, organism-based; settings: in vivo
[15] = Antitumor activity against human H1975-TM cells xenografted in BALB/c mouse assessed as tumor growth inhibition at 20 mg/kg,ip once daily for 14 days relative to control; format: functional; settings: 336 h, time 14 day, read-out: TGI

Sequence of Voltage-gated inwardly rectifying potassium channel KCNH2 (Q12809 whole entry): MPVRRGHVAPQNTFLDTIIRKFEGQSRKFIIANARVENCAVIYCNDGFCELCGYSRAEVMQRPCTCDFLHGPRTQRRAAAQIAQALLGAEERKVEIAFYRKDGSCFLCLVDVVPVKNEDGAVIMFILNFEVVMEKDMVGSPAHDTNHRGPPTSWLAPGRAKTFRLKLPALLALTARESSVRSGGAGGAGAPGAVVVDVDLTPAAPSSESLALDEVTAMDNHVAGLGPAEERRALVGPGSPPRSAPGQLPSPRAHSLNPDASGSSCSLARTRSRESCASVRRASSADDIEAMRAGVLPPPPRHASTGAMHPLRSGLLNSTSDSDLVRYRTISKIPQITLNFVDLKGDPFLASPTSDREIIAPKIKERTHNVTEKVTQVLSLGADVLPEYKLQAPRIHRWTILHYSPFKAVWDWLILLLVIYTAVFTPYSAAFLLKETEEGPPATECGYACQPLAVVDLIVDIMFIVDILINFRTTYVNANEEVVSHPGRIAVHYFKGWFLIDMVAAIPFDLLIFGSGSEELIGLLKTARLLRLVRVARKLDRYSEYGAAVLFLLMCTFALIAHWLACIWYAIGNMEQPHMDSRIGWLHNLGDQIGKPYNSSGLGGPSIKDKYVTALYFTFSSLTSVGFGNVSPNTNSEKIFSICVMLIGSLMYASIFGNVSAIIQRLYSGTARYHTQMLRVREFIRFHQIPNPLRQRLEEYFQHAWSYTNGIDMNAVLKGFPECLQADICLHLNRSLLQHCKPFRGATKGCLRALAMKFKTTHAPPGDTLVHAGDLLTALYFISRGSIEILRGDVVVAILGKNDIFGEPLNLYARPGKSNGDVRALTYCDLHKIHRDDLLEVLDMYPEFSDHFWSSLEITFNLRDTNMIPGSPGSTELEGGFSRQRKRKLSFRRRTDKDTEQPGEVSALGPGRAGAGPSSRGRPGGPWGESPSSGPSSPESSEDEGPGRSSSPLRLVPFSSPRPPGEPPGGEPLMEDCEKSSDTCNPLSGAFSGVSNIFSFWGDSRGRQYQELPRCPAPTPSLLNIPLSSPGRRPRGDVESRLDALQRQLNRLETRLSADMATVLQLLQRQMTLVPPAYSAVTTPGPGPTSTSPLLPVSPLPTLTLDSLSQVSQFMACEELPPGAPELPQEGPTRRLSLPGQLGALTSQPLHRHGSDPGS

## CCN(CC)C/C=C/C(=O)Nc1cc2c(Nc3ccc(F)c(Cl)c3)ncnc2cc1OCc1cn(CCCCCCCC(=O)N[C@H](C(=O)N2C[C@H](O)C[C@H]2C(=O)N[C@H](C)c2ccc(-c3scnc3C)cc2)C(C)(C)C)nn1
[1]
  half-life at 1 µM: 37.9 min
[2]
  Activity: Dose-Dependent Effect
HCC827
  inhibition in vivo at 5 mg/kg: 88%
[3]
  half-life at 1 µM: 77.9 min
NCI-H1975
  inhibition in vivo at 20 mg/kg: 85%
[4]
  Activity: Dose-Dependent Effect
[5]
  microsomal CLint at 1 µM: 36.6 µL/min/mg
[6]
  AUC(0-inf): 2360 ng·h/mL
[7]
  MRT inf: 20.4 min
[8]
  inhibition (INH): Not Active
H1975-TM
  Activity: Active
[9]
  Activity: Dose-Dependent Effect
[10]
  k el at 1 h, 1 µM: 0.0007 s⁻¹
[11]
  Tmax: 4.8 min
[12]
  Activity: inactive
[13]
  Activity: Dose-Dependent Effect
[14]
  half-life: 57.6 min
[15]
  inhibition in vivo at 20 mg/kg: 50%

Source: ChEMBL document CHEMBL5523716, “Discovery of novel EGFR-PROTACs capable of degradation of multiple EGFR-mutated proteins” (Eur J Med Chem, 2024)
